{"source": "paper PMC7377239", "about": "“Cardiovascular Effects of Polychlorinated Biphenyls and Their Major Metabolites” (Environmental Health Perspectives, 2020)", "key": {"[1]": {"test_system": "iCell cardiomyocytes (human iPSC-derived cardiomyocytes)", "experiment": "High-content imaging of cytotoxicity and mitochondrial integrity in iPSC-CMs", "format": "cell-based", "settings": "Homo sapiens; for viability at 0.01 µM / activity at 0.01 µM / viability at 0.1 µM / activity at 0.1 µM / viability at 1 µM / activity at 1 µM / viability at 10 µM / activity at 10 µM / viability at 100 µM / activity at 100 µM: Cardiomyocyte, 0.00 µM = 100.00; for viability at 0.1 µM / activity at 0.1 µM: 0.10 µM; for minimal effective concentration: iPSC-CM", "summary_of_the_method": "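This assay measured cytotoxicity and mitochondrial integrity in iPSC cardiomyocytes held in 40μL maintenance medium. After compound exposure, a 2× staining solution with Hoechst 33342 (4μg/mL) and MitoTracker™ Orange (0.4μM) was applied for 15 min at 37°C. Cells were washed, fixed with 3.7% formaldehyde, imaged on DAPI and Cy3 channels, and scored in MetaXpress®.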"}, "HUVECs": {"test_system": "HUVECs", "experiment": "High-content imaging cytotoxicity in HUVECs, 24 h", "format": "cell-based, human", "settings": "Homo sapiens, HUVEC, 24 h, HUVECs; for viability at 0.01 µM / activity at 0.01 µM / viability at 0.1 µM / activity at 0.1 µM / viability at 1 µM / activity at 1 µM / viability at 10 µM / activity at 10 µM / viability at 100 µM / activity at 100 µM: 0.00 µM = 100.00; for viability at 0.1 µM / activity at 0.1 µM: 0.10 µM; for minimal effective concentration: top concentration 100.00 µM", "summary_of_the_method": "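Read-out: multiwavelength high-content imaging of Hoechst 33342, MitoTracker Orange and calcein AM after 24 h compound exposure of confluent HUVEC monolayers. POD values were set using a one-SD cutoff from vehicle (0.5% DMSO) means; with no concentration–response, 100μM was assigned as no observable adverse effect level.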"}, "[2]": {"settings": "24 hr, read-out: huvec.cyto.24hr"}, "[3]": {"settings": "24 hr, read-out: huvec.mito.24hr"}, "[4]": {"settings": "24 hr, read-out: huvec.mitoint.24hr"}, "[5]": {"settings": "24 hr, read-out: huvec.nma.24hr"}, "[6]": {"settings": "24 hrs, read-out: huvec.tc.24hrs"}}, "note": "Where two headings read alike, the source gives them in different places."}
{"smiles": "Oc1ccc(-c2cccc(Cl)c2)cc1Cl", "note": "[4-OH PCB11]", "values": [{"measurement": "viability at 0.01 µM", "setting": "[1]; 1.5 h, read-out: cm.cam.90min", "result": 94.9, "unit": "%"}, {"measurement": "activity at 0.01 µM", "setting": "[1]; 1.5 h, read-out: cm.mii.90min", "result": 115, "unit": "%"}, {"measurement": "activity at 0.01 µM", "setting": "[1]; 1.5 h, read-out: cm.mito.90min", "result": 94.7, "unit": "%"}, {"measurement": "viability at 0.01 µM", "setting": "[1]; 1.5 h, read-out: cm.tc.90min", "result": 94.7, "unit": "%"}, {"measurement": "viability at 0.1 µM", "setting": "[1]; 1.5 h, read-out: cm.cam.90min", "result": 95, "unit": "%"}, {"measurement": "activity at 0.1 µM", "setting": "[1]; 1.5 h, read-out: cm.mii.90min", "result": 108, "unit": "%"}, {"measurement": "activity at 0.1 µM", "setting": "[1]; 1.5 h, read-out: cm.mito.90min", "result": 95, "unit": "%"}, {"measurement": "viability at 0.1 µM", "setting": "[1]; 1.5 h, read-out: cm.tc.90min", "result": 95, "unit": "%"}, {"measurement": "viability at 1 µM", "setting": "[1]; 1.5 h, read-out: cm.cam.90min", "result": 99.1, "unit": "%"}, {"measurement": "activity at 1 µM", "setting": "[1]; 1.5 h, read-out: cm.mii.90min", "result": 113, "unit": "%"}, {"measurement": "activity at 1 µM", "setting": "[1]; 1.5 h, read-out: cm.mito.90min", "result": 98.6, "unit": "%"}, {"measurement": "viability at 1 µM", "setting": "[1]; 1.5 h, read-out: cm.tc.90min", "result": 98.8, "unit": "%"}, {"measurement": "viability at 10 µM", "setting": "[1]; 1.5 h, read-out: cm.cam.90min", "result": 106, "unit": "%"}, {"measurement": "activity at 10 µM", "setting": "[1]; 1.5 h, read-out: cm.mii.90min", "result": 93.6, "unit": "%"}, {"measurement": "activity at 10 µM", "setting": "[1]; 1.5 h, read-out: cm.mito.90min", "result": 106, "unit": "%"}, {"measurement": "viability at 10 µM", "setting": "[1]; 1.5 h, read-out: cm.tc.90min", "result": 106, "unit": "%"}, {"measurement": "viability at 100 µM", "setting": "[1]; 1.5 h, read-out: cm.cam.90min", "result": 0.0234, "unit": "%"}, {"measurement": "activity at 100 µM", "setting": "[1]; 1.5 h, read-out: cm.mii.90min", "result": 157, "unit": "%"}, {"measurement": "activity at 100 µM", "setting": "[1]; 1.5 h, read-out: cm.mito.90min", "result": 0.0462, "unit": "%"}, {"measurement": "viability at 100 µM", "setting": "[1]; 1.5 h, read-out: cm.tc.90min", "result": 0.09, "unit": "%"}, {"measurement": "viability at 0.01 µM", "setting": "[1]; 24 h, read-out: cm.cam.24hrs", "result": 90.8, "unit": "%"}, {"measurement": "activity at 0.01 µM", "setting": "[1]; 24 h, read-out: cm.mii.24hrs", "result": 101, "unit": "%"}, {"measurement": "activity at 0.01 µM", "setting": "[1]; 24 h, read-out: cm.mito.24hrs", "result": 86.2, "unit": "%"}, {"measurement": "viability at 0.01 µM", "setting": "[1]; 24 h, read-out: cm.tc.24hrs", "result": 90.8, "unit": "%"}, {"measurement": "viability at 0.1 µM", "setting": "[1]; 24 h, read-out: cm.cam.24hrs", "result": 100, "unit": "%"}, {"measurement": "activity at 0.1 µM", "setting": "[1]; 24 h, read-out: cm.mii.24hrs", "result": 111, "unit": "%"}, {"measurement": "activity at 0.1 µM", "setting": "[1]; 24 h, read-out: cm.mito.24hrs", "result": 97.6, "unit": "%"}, {"measurement": "viability at 0.1 µM", "setting": "[1]; 24 h, read-out: cm.tc.24hrs", "result": 99.9, "unit": "%"}, {"measurement": "viability at 1 µM", "setting": "[1]; 24 h, read-out: cm.cam.24hrs", "result": 98.4, "unit": "%"}, {"measurement": "activity at 1 µM", "setting": "[1]; 24 h, read-out: cm.mii.24hrs", "result": 100, "unit": "%"}, {"measurement": "activity at 1 µM", "setting": "[1]; 24 h, read-out: cm.mito.24hrs", "result": 96.4, "unit": "%"}, {"measurement": "viability at 1 µM", "setting": "[1]; 24 h, read-out: cm.tc.24hrs", "result": 98.7, "unit": "%"}, {"measurement": "viability at 10 µM", "setting": "[1]; 24 h, read-out: cm.cam.24hrs", "result": 93.1, "unit": "%"}, {"measurement": "activity at 10 µM", "setting": "[1]; 24 h, read-out: cm.mii.24hrs", "result": 96.5, "unit": "%"}, {"measurement": "activity at 10 µM", "setting": "[1]; 24 h, read-out: cm.mito.24hrs", "result": 90.8, "unit": "%"}, {"measurement": "viability at 10 µM", "setting": "[1]; 24 h, read-out: cm.tc.24hrs", "result": 93.5, "unit": "%"}, {"measurement": "viability at 100 µM", "setting": "[1]; 24 h, read-out: cm.cam.24hrs", "result": 0.0471, "unit": "%"}, {"measurement": "activity at 100 µM", "setting": "[1]; 24 h, read-out: cm.mii.24hrs", "result": 1.84, "unit": "%"}, {"measurement": "activity at 100 µM", "setting": "[1]; 24 h, read-out: cm.mito.24hrs", "result": 0.024, "unit": "%"}, {"measurement": "viability at 100 µM", "setting": "[1]; 24 h, read-out: cm.tc.24hrs", "result": 0.11, "unit": "%"}, {"measurement": "minimal effective concentration", "setting": "[1]; 1.5 h, read-out: cm.cam.90min POD", "result": 27.7, "unit": "µM"}, {"measurement": "minimal effective concentration", "setting": "[1]; 1.5 h, read-out: cm.mii.90min POD", "result": 32.7, "unit": "µM"}, {"measurement": "minimal effective concentration", "setting": "[1]; 1.5 h, read-out: cm.mito.90min POD", "result": 40.1, "unit": "µM"}, {"measurement": "minimal effective concentration", "setting": "[1]; 1.5 h, read-out: cm.tc.90min POD", "result": 36.2, "unit": "µM"}, {"measurement": "minimal effective concentration", "setting": "[1]; 24 h, read-out: cm.cam.24hrs POD", "result": 8.57, "unit": "µM"}, {"measurement": "minimal effective concentration", "setting": "[1]; 24 h, read-out: cm.mii.24hrs POD", "result": 43.2, "unit": "µM"}, {"measurement": "minimal effective concentration", "setting": "[1]; 24 h, read-out: cm.mito.24hrs POD", "result": 7.94, "unit": "µM"}, {"measurement": "minimal effective concentration", "setting": "[1]; 24 h, read-out: cm.tc.24hrs POD", "result": 8.62, "unit": "µM"}, {"measurement": "viability at 0.01 µM", "setting": "HUVECs; [2]", "result": 113, "unit": "%"}, {"measurement": "activity at 0.01 µM", "setting": "HUVECs; [3]", "result": 112, "unit": "%"}, {"measurement": "activity at 0.01 µM", "setting": "HUVECs; [4]", "result": 86.8, "unit": "%"}, {"measurement": "activity at 0.01 µM", "setting": "HUVECs; [5]", "result": 95.3, "unit": "%"}, {"measurement": "viability at 0.1 µM", "setting": "HUVECs; [2]", "result": 87.7, "unit": "%"}, {"measurement": "activity at 0.1 µM", "setting": "HUVECs; [3]", "result": 86.9, "unit": "%"}, {"measurement": "activity at 0.1 µM", "setting": "HUVECs; [4]", "result": 109, "unit": "%"}, {"measurement": "activity at 0.1 µM", "setting": "HUVECs; [5]", "result": 105, "unit": "%"}, {"measurement": "viability at 1 µM", "setting": "HUVECs; [2]", "result": 97, "unit": "%"}, {"measurement": "activity at 1 µM", "setting": "HUVECs; [3]", "result": 96.1, "unit": "%"}, {"measurement": "activity at 1 µM", "setting": "HUVECs; [4]", "result": 101, "unit": "%"}, {"measurement": "activity at 1 µM", "setting": "HUVECs; [5]", "result": 97.1, "unit": "%"}, {"measurement": "viability at 10 µM", "setting": "HUVECs; [2]", "result": 43.8, "unit": "%"}, {"measurement": "activity at 10 µM", "setting": "HUVECs; [3]", "result": 26.1, "unit": "%"}, {"measurement": "activity at 10 µM", "setting": "HUVECs; [4]", "result": 10.9, "unit": "%"}, {"measurement": "activity at 10 µM", "setting": "HUVECs; [5]", "result": 69.2, "unit": "%"}, {"measurement": "viability at 100 µM", "setting": "HUVECs; [2]", "result": 34.6, "unit": "%"}, {"measurement": "activity at 100 µM", "setting": "HUVECs; [3]", "result": 0.26, "unit": "%"}, {"measurement": "activity at 100 µM", "setting": "HUVECs; [4]", "result": 2.7, "unit": "%"}, {"measurement": "activity at 100 µM", "setting": "HUVECs; [5]", "result": 73.6, "unit": "%"}, {"measurement": "minimal effective concentration", "setting": "HUVECs; 24 hr, read-out: huvec.cyto.24hr POD", "result": 1.37, "unit": "µM"}, {"measurement": "minimal effective concentration", "setting": "HUVECs; 24 hr, read-out: huvec.mito.24hr POD", "result": 1.2, "unit": "µM"}, {"measurement": "minimal effective concentration", "setting": "HUVECs; 24 hr, read-out: huvec.mitoint.24hr POD", "result": 5.43, "unit": "µM"}, {"measurement": "minimal effective concentration", "setting": "HUVECs; 24 hr, read-out: huvec.nma.24hr POD", "result": 0.99, "unit": "µM"}, {"measurement": "viability at 0.01 µM", "setting": "HUVECs; [6]", "result": 113, "unit": "%"}, {"measurement": "viability at 0.1 µM", "setting": "HUVECs; [6]", "result": 87.7, "unit": "%"}, {"measurement": "viability at 1 µM", "setting": "HUVECs; [6]", "result": 97, "unit": "%"}, {"measurement": "viability at 10 µM", "setting": "HUVECs; [6]", "result": 44.1, "unit": "%"}, {"measurement": "viability at 100 µM", "setting": "HUVECs; [6]", "result": 36.5, "unit": "%"}, {"measurement": "minimal effective concentration", "setting": "HUVECs; 24 hrs, read-out: huvec.tc.24hrs POD", "result": 1.37, "unit": "µM"}]}
